Results taken from US6534518B1, “Polysubstituted 6-phenylphenanthridines with PDE-IV inhibiting activity” (Altana Pharma AG, priority 1999, dated 2003).

System: PDE4
Experiment: Inhibition of PDE4 activity (method of Bauer and Schwabe, microtiter plates)
Type: biochemical
Conditions: inhibitory concentration as −log IC50 (mol/l)
Procedure: The activity test was carried out according to the method of Bauer and Schwabe, which was adapted to microtiter plates (Naunyn-Schmiedeberg's Arch. Pharmacol. 1980, 311, 193-198). The PDE reaction takes place in the first step here. In a second step, the resulting 5′-nucleotide is cleaved by a 5′-nucloetidase of the snake venom of Crotalus atrox to the uncharged nucleoside. In the third step, the nucleoside is separated from the remaining charged substrate on ion-exchange columns. The columns are eluted directly into minivials, into which 2 ml of scintillator fluid are additionally added for counting, using 2 ml of 30 mM ammonium formate (pH 6.0).
The inhibitory values determined for the compounds according to the invention [inhibitory concentration as −log IC50 (mol/l)] follow from the following Table A, in which the numbers of the compounds correspond to the numbers of the examples.

Row | SMILES | −log IC50 (inhibition of the PDE4 activity)
1 | CCOc1cc(C2=N[C@H]3CCCC[C@H]3c3cc(OC)c(OC)cc32)cc(OCC)c1OCC [Compound 6, (−)-cis-8,9-Dimethoxy-6-(3,4,5-triethoxyphenyl)-1,2,3,4,4a,10b-hexahydrophenanthridine] | 7.81
2 | COc1cc2c(cc1OC)[C@@H]1CCCC[C@@H]1N=C2c1cc(OC)c(OC)c(S(C)(=O)=O)c1 [Compound 5, (−)-cis-6-(3-Methanesulfonyl-4,5-dimethoxyphenyl)-8,9-dimethoxy-1,2,3,4,4a,10b-hexahydrophenanthridine] | 7.57
3 | COc1cc2c(cc1OC)[C@@H]1CCCC[C@@H]1N=C2c1ccc([N+](=O)[O-])c([N+](=O)[O-])c1 [Compound 1, (−)-cis-8,9-Dimethoxy-6-(3,4-dinitrophenyl)-1,2,3,4,4a,10b-hexahydrophenanthridine] | 7.26
4 | COc1cc2c(cc1OC)[C@@H]1CCCC[C@@H]1N=C2c1cc([N+](=O)[O-])cc([N+](=O)[O-])c1 [Compound 3, (−)-cis-8,9-Dimethoxy-6-(3,5-dinitrophenyl)-1,2,3,4,4a,10b-hexahydrophenanthridine] | 6.56
5 | COc1cc2c(cc1OC)C1CCCCC1N=C2c1cc(C(F)(F)F)cc(C(F)(F)F)c1 (single isomer, unassigned; (-)) [Compound 2, (−)-cis-6-(Bis-3,5-trifluoromethylphenyl)-8,9-dimethoxy-1,2,3,4,4a,10b-hexahydrophenanthridine] | 6.93
6 | COc1cc2c(cc1OC)[C@@H]1CCCC[C@@H]1N=C2c1cc(OC)c(OC)c(OC)c1 [Compound 4, (−)-cis-8,9-Dimethoxy-6-(3,4,5-trimethoxyphenyl)-1,2,3,4,4a,10b-hexahydrophenanthridine] | 6.96

System: not given
Experiment: not given
Conditions: not given

Row | SMILES | melting point [°C]
7 | COc1cc2c(cc1OC)[C@@H]1CCCC[C@@H]1N=C2c1ccc([N+](=O)[O-])c([N+](=O)[O-])c1 [Compound 1, (−)-cis-8,9-Dimethoxy-6-(3,4-dinitrophenyl)-1,2,3,4,4a,10b-hexahydrophenanthridine] | 162 to 165
